Data on 3 molecules can be found in publication PMC4287489, “Ribose 5-Phosphate Isomerase B Knockdown Compromises Trypanosoma brucei Bloodstream Form Infectivity” (PLoS Neglected Tropical Diseases, 2015).

The target of data set [1] is T1, Trypanosoma cruzi ribose 5-phosphate isomerase B (TcRpiB) (Trypanosoma cruzi, UniProt Q4DBP9).
T1 construct: gene Tc00.1047053508601.119; recombinant N-terminal 6xHis-tagged TcRpiB (CL Brener Non-Esmeraldo-like) expressed in E. coli; 159 residues per monomer
In words: enzyme kinetics (Km), direct spectrophotometric assay at […] nm. Format: biochemical.

Data set [2] deals with T1, Trypanosoma cruzi ribose 5-phosphate isomerase B (TcRpiB). In words: spectrophotometric isomerase assay; Ki from Kmapp/Vmax plot; IC50 […]. Format: biochemical.
In data set [3] the target is T2, Trypanosoma brucei ribose 5-phosphate isomerase B (TbRpiB) (Trypanosoma brucei, UniProt Q384D1).
T2 construct: gene Tb11.01.0700; recombinant N-terminal 6xHis-tagged TbRpiB expressed in E. coli; 155 residues per monomer
In words: spectrophotometric isomerase assay ([…] nm) and cysteine-carbazole assay; Ki from Kmapp/Vmax plot; IC50 […]. The format is biochemical.

Data set [4] has as its system O=C(CO)[C@H](O)[C@H](O)COP(=O)(O)O. The data set can be described thus: purified protein.

T1 sequence (Q4DBP9 entry or part of it): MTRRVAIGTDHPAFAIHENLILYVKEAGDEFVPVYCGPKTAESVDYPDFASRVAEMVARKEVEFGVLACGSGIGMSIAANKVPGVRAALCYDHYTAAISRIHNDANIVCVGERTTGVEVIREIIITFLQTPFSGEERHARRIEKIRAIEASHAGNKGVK
T2 sequence (Q384D1 entry or part of it): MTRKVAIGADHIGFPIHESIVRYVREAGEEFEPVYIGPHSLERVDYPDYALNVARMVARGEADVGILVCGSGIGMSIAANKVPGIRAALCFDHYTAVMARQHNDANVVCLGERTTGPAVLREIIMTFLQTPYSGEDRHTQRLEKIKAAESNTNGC

As for `O=P(O)(O)OC[C@H]1OC(O)[C@H](O)[C@@H]1O` (stereo partly drawn) [R5P, D-ribose 5-phosphate], in data set [1], the “enzyme kinetics (Km), direct spectrophotometric assay at 290 nm” value is “enzymes have in vitro ribose 5-phosphate isomerase activity, as these proteins can use both R5P and Ru5P as substrates”.

On to `O=C(NO)[C@H](O)[C@H](O)COP(=O)(O)O` [4-PEH, 4-deoxy-4-phospho-D-erythronohydroxamic acid], for which the Ki – broadly, the equilibrium dissociation constant of an inhibitor or competing ligand from its target – in data set [2] was determined as 1600 µM; in data set [3] it was 2200 µM.

With “Trypanosoma brucei ribose 5-phosphate isomerase B (TbRpiB) (Trypanosoma brucei brucei TREU927)”, in data set [4], the Km (commonly the concentration of substrate that gives half-maximal velocity) is 2390 ± 940 µM; the kcat (usually the maximal rate divided by the concentration of active sites) was determined as 39.4 ± 5.32 s⁻¹; the specificity constant (kcat/Km) (as a rule, the turnover number divided by the Michaelis constant) stood at 16400 M⁻¹ s⁻¹.
